Source: ChEMBL document CHEMBL1201862, “PubChem BioAssay data set” (2004)
Where “and” joins values, the source holds several entries; their conditions need not be identical. Equal values may be shown once. Calls of active or inactive are those of the source.

Columns and labels:
[1] = molecular target: T1, Rac GTPase-activating protein 1 (Homo sapiens, UniProt Q9H0H5); assay: blockers of MgcRacGAP-driven Rac1 GTP hydrolysis – biochemical, ADP Hunter fluorescence, primary and confirmatory, confirmation (AID 624330); format: functional
T1 sequence (Q9H0H5 whole entry): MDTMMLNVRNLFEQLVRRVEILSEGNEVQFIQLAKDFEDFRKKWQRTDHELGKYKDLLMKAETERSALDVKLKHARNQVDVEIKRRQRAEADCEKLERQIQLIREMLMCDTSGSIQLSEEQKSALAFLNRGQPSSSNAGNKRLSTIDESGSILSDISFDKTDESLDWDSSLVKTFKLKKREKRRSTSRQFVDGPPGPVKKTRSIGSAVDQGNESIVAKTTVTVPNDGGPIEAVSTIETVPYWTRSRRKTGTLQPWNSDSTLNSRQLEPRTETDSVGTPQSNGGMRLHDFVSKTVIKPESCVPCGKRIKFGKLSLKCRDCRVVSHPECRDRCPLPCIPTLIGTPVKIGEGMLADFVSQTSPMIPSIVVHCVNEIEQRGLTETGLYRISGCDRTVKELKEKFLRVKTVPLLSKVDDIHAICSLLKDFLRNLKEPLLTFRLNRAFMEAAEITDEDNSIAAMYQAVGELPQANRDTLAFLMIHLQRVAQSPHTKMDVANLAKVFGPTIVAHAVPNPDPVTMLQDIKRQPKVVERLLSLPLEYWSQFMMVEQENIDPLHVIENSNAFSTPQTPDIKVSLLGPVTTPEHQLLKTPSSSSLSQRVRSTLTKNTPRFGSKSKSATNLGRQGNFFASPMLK

Cytochrome P450 2C19 = Cytochrome P450 2C19 (Homo sapiens, UniProt P33261); assay: Cytochrome panel assay with activity outcomes. Panel member name: p450-cyp2c19 Compounds with AC50 equal or less than 10 uM are considered active; format: functional
Cytochrome P450 3A4 = Cytochrome P450 3A4 (Homo sapiens, UniProt P08684);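 also: CYP3A4 tested as one member of a cytochrome P450 panel screen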
Cytochrome P450 2D6 = Cytochrome P450 2D6 (Homo sapiens, UniProt P10635);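 also: CYP2D6 member of a cytochrome P450 panel assay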
[2] = molecular target: T2, Heat shock factor protein 1 (Mus musculus, UniProt P38532); assay: decrease of HSF1-responsive luciferase luminescence – cell-based, NIH3T3, dose retest, confirmation (AID 2382); format: functional;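 also: NIH3T3 fibroblasts with HSF1-driven luciferase reporter stressed by proteasome inhibitor MG132; luminescence from HSF1-driven luciferase expression after 8 hours of MG132 stress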
T2 sequence (P38532 whole entry): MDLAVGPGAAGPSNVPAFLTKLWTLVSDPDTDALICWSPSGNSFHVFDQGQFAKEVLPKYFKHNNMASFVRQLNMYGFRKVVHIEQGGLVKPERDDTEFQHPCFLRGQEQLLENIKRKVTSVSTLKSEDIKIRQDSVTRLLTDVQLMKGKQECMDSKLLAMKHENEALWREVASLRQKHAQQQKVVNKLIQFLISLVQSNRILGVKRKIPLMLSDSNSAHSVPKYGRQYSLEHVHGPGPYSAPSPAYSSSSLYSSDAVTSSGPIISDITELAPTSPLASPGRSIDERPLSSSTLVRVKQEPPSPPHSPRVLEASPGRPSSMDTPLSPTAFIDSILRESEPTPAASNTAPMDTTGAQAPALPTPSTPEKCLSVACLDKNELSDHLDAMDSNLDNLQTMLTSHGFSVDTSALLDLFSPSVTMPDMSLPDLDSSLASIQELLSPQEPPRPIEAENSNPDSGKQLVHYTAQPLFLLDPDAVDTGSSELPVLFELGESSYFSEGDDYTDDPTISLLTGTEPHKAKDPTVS

[3] = molecular target: T3, Corticotropin-releasing factor receptor 2/Corticotropin-releasing factor-binding protein (Homo sapiens, UniProt P24387+Q13324); assay: activators of CRF receptor 2 with binding protein – uHTS hits, confirmation (AID 602473); format: functional; settings: read-out: EC50_Mean
T3 sequence (Q13324 whole entry): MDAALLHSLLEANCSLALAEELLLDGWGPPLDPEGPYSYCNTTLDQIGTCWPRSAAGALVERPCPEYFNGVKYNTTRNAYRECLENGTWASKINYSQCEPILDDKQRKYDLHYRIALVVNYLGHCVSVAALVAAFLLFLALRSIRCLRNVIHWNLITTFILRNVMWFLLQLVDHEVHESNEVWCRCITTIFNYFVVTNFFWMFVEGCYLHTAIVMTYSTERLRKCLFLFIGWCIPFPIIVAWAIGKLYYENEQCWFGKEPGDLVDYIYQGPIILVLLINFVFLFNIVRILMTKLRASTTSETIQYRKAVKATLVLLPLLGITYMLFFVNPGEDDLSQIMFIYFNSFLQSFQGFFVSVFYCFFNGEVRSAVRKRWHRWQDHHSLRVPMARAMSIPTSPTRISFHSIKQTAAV
T3 sequence (P24387 whole entry): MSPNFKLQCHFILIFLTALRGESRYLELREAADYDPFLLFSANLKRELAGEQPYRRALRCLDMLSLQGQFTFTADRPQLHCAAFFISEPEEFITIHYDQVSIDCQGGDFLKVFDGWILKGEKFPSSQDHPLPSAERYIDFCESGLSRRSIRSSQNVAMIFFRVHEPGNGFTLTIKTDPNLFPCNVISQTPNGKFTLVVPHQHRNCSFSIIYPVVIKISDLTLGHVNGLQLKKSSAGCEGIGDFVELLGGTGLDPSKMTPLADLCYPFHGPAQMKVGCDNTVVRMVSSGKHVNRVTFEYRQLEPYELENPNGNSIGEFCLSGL

[4] = non-specific 3'UTR reporter inhibition in Clone20-Shn3RL – cell-based, Renilla luciferase, cherry-picked, counter-screen for Shn3 inhibitor project, dose response (AID 624133); format: functional
[5] = loss of viability in HepG2 cells – cell-based, CellTiter-Glo, cherry-picked, cytotoxicity control for Shn3 inhibitor project, dose response (AID 624134); format: functional
[6] = reduction of Shn3 3'UTR-driven luciferase in osteoblasts – cell-based, Clone20 osteoblasts, firefly luciferase, cherry-picked, dose response (AID 624132); format: functional;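 also: firefly luciferase luminescence from reporter carrying the Shn3 3'UTR in osteoblasts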
cells = format: functional
Cytochrome P450 2C9 = Cytochrome P450 2C9 (Homo sapiens, UniProt P11712)
[7] = viability of HCT116 lacking mutant beta-catenin – cell-based, human colon tumor, dose response (AID 1045); format: functional;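 also: HCT116 colon tumor cells with beta catenin knocked out; cells exposed to compound for 60 hours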
[8] = viability of PTEN-deleted HCT116 cells – cell-based, HCT116 PTEN knockout, dose response (AID 1047); format: functional;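 also: HCT116 colon tumor cells with PTEN knocked out; cells exposed to compound for 60 hours before readout; potency for loss of cell viability measured by luminescence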
[9] = viability of uninfected HEp-2 cells – cell-based, HTS, cytotoxicity control for RSV inhibitor project, dose response (AID 2410); format: functional; settings: human respiratory syncytial virus
[10] = NIH3T3 cell viability loss – ATP luminescence, mouse fibroblasts, counter-screen, dose response (AID 2010); format: functional, cell-based;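 also: cells exposed to compound for about 90 hours before reading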
[11] = Trypanosoma cruzi growth suppression in host cells – NIH3T3 host cells, beta-gal luminescence, confirmation (AID 2044); format: functional, cell-based;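 also: intracellular parasites grown in NIH/3T3 mouse fibroblasts as host cells; luminescent beta-galactosidase reporter signal from transgenic T. cruzi replicating inside host cells; inhibitors lower the luminescence signal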

Sequence of Cytochrome P450 2C9 (P11712 whole entry): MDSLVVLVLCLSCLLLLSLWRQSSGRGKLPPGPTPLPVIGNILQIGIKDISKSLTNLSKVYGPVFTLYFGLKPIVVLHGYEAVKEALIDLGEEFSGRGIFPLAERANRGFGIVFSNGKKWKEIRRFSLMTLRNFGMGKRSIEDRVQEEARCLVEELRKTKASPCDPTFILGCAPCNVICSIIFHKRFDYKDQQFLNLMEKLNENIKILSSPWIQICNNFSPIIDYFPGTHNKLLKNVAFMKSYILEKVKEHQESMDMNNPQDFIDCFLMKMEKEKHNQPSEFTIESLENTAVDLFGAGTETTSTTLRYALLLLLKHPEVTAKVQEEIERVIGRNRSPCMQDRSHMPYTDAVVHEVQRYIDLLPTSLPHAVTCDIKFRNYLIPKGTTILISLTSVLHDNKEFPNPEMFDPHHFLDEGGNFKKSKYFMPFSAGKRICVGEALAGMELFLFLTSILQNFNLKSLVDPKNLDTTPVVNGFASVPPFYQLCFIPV
Sequence of Cytochrome P450 2D6 (P10635 whole entry): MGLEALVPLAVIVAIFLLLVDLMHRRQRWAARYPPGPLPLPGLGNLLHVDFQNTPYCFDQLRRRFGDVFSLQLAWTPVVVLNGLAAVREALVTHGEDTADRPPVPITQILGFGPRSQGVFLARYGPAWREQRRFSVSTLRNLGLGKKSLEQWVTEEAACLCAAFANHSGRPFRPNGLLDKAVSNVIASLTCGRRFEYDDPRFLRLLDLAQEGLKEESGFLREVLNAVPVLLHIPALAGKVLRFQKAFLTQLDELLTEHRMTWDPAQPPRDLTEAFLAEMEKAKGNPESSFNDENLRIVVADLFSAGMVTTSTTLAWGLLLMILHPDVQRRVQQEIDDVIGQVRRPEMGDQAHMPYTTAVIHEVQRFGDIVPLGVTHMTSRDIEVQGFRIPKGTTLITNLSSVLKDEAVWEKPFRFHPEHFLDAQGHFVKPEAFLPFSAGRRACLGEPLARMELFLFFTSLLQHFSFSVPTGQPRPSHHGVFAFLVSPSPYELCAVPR
Sequence of Cytochrome P450 3A4 (P08684 whole entry): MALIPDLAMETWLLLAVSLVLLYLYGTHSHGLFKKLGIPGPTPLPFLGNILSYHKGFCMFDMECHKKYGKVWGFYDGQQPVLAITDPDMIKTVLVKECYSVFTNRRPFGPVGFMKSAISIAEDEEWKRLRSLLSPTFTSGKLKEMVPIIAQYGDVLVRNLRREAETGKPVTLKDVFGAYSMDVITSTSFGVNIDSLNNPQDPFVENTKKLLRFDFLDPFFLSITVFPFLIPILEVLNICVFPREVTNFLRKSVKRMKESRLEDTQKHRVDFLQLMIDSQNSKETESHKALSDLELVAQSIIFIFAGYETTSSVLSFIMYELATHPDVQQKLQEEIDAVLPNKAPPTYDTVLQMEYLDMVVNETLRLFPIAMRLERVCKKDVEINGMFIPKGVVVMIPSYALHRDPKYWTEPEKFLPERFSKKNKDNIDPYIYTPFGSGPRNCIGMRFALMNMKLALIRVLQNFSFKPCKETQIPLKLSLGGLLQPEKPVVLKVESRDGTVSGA
Sequence of Cytochrome P450 2C19 (P33261 whole entry): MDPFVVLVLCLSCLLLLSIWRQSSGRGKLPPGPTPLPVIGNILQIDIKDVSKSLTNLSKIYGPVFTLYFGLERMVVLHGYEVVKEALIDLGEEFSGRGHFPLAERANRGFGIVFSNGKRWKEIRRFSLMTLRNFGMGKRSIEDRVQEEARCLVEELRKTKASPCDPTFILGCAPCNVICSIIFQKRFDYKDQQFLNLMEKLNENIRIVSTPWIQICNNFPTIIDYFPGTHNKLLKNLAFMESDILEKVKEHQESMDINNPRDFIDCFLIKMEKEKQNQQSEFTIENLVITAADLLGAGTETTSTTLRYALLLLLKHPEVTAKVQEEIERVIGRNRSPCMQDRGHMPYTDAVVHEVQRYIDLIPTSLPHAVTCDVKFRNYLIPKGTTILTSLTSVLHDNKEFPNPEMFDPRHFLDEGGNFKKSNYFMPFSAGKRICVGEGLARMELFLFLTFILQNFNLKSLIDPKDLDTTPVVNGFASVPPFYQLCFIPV

Cc1ccccc1CN(C)CCc1ccccn1
IC50 [1]: 123 µM (active)

CC(C)COc1ccc(C2(C#N)CC[N+](C)(C)CC2)cc1.[Br-]
AC50 (Cytochrome P450 2C19): inconclusive
AC50 (Cytochrome P450 3A4): 39.8 µM (inconclusive)
AC50 (Cytochrome P450 2D6): 11.2 µM (inconclusive)

Nn1c(SCc2ccccc2)nnc1-c1ccco1
EC50 [2]: > 195 µM (not active)

O=C(Cn1c(C(=O)NCc2ccco2)cc2sccc21)c1ccccc1
IC50 [1]: 139 µM (active)

Clc1ccc(NN(Cc2ccncc2)c2ccc(Cl)cc2)cc1
EC50 [3]: > 53 µM (inactive)

Cc1ccc(S(=O)(=O)N2CCN(c3ncnc4sccc34)CC2)cc1C
AC50 [4]: 6.17 µM (active)
AC50 [5]: 5.96 µM (active)
AC50 [6]: 3.53 µM (active)

O=C(OCC(=O)C12CC3CC(CC(C3)C1)C2)c1ccccn1
IC50 (cells): 37.8 µM (active)

CCNc1ncc2nc(-c3cn(C)c4ccccc34)c(=O)n(C)c2n1
AC50 (Cytochrome P450 3A4): 10 µM (inconclusive)
AC50 (Cytochrome P450 2D6): 12.6 µM (inconclusive)
AC50 (Cytochrome P450 2C9): 39.8 µM (inconclusive)

COc1ccccc1NCC(O)Cn1c2ccccc2c2ccccc21 (centres undefined)
EC50 [7]: 43.6 µM (active)
EC50 [8]: 34.3 µM (active)

Cc1c(C(=O)Nc2ccncc2)sc2nc(-c3ccc(F)cc3)cn12
CC50 [9]: 5.09 µM (active)
EC50 [7]: 29.3 µM (active)
EC50 [8]: 27.9 µM (active)

CCN(CC)S(=O)(=O)c1ccc(C(=O)OCn2nnc3ccccc3c2=O)cc1
IC50 (cells): 17.9 µM (active)

C/C=C1\C[N@@+]2(C)CC[C@@]34C(=C(C=O)[C@H]1C[C@H]32)Nc1ccccc14
AC50 (Cytochrome P450 3A4): 0.00126 µM (inconclusive)
AC50 (Cytochrome P450 2D6): 6.31 µM (inconclusive)

CCOC(=O)c1sc(NC(=S)NC(=O)c2cccc(OC)c2)nc1C
EC50 [3]: 15 µM (active)

CCOc1cc(/C=N/NC(=O)CCn2nc(C)cc2C)ccc1O
IC50 [1]: 61.5 µM (active)

Cc1cccc(CN(C)CCc2ccccn2)c1
EC50 [10]: > 30 µM (not active)
EC50 [11]: 0.517 µM (active)
AC50 (Cytochrome P450 2D6): 2.51 µM (inconclusive)
AC50 (Cytochrome P450 2C9): 0.355 µM (inconclusive)

CCOCCN1CCC(OC(C)=O)C(C)C1 (centres undefined)
AC50 (Cytochrome P450 2C19; read-out: AC50): 3.16 µM (inconclusive)
AC50 (Cytochrome P450 2D6): 12.6 µM (inconclusive)

O=C(c1ccco1)N1CCC[C@@]2(CCN(c3ccncc3)C2)C1
AC50 (Cytochrome P450 2D6): 25.1 µM (inconclusive)
AC50 (Cytochrome P450 2C9): 15.8 µM (inconclusive)

Cc1cc2c(nc1C)CCCN2C[C@H](C)O/N=C1/[C@H]2O[C@@H]2[C@@H](O)[C@H]2[C@H]1CCn1c(=O)n(-c3ccccc3)c(=O)n12
AC50 (Cytochrome P450 3A4): 6.31 µM (inconclusive)
AC50 (Cytochrome P450 2D6): 2.51 µM (inconclusive)

COc1ccccc1C1=NOC(COC(=O)c2ccc([N+](=O)[O-])cc2)C1 (centres undefined)
IC50 (cells): 3.93 µM (active)

Cc1nn(Cc2c(F)c(F)c(F)c(F)c2F)c(C)c1NC(=O)c1c(-c2ccccc2)nn(-c2ccccc2)c1C
EC50 [7]: 25.8 µM (active)
EC50 [8]: 21.9 µM (active)

COc1ccccc1N1CCN(CCCCN2C(=O)c3ccccc3C2=O)CC1 [NAN-190]
AC50 (Cytochrome P450 3A4): 31.6 µM (inconclusive) and 1.58 µM (inconclusive)
AC50 (Cytochrome P450 2D6): 12.6 µM (inconclusive) and 10 µM (inconclusive)
